Six compounds from patent US12171230B2, “Herbicidal compositions” (Bayer Aktiengesellschaft, priority 2018, dated 2024) can be followed below.

“And” between values parts separate entries of the source, which are not always exact repeats. Identical values can stand only once.

Format in all cases: in vivo
The subject of assay [1] is Eleusine indica. Put plainly: Post-emergence herbicidal action against Eleusine indica. Particulars: 21 DAT.
Assay [2] has as its system Bidens pilosa. Put plainly: Post-emergence herbicidal action against Bidens pilosa. Conditions: for Herbicidal action / Herbicidal action against Bidens pilosa: 21 DAT; for Herbicidal action 21 DAT [%] against Bidens pilosa: post-emergence, block with (B1.14) Tembotrione. On the procedure:
(§1) When the observed efficacies exceed the formal sum total of the values of the tests with individual applications, they also exceed the expected value according to Colby, which is calculated using the formula below and is likewise regarded as an indication of synergism (cf. S. R. Colby; in Weeds 15 (1967) p. 20 to 22): E^C=A+B−([…])
(§2) Here: • A=efficacy of the active compound (A) in % at an application rate of a g a.i./ha; • B=efficacy of the active compound (B) in % at an application rate of b g a.i./ha; • E^C=expected value of the effect of the combination (A)+(B) in % at the combined application rate a+b g a.i./ha.
(§3) Seeds or rhizome pieces of mono- and dicotyledonous weeds are placed in sandy loam in pots, covered with soil and grown in a greenhouse under good growth conditions (temperature, air humidity, water supply). Three weeks after sowing, the test plants were treated at the three-leaf stage with the compositions according to the invention. The compositions according to the invention formulated as spray powders or as emulsion concentrates were sprayed onto the green plant parts in various dosages with an application rate of 300 to 800 l/ha of water (equivalent). After the test plants have been left to stand in the greenhouse under optimal growth conditions for about 3 to 4 weeks, the action of the preparations is scored visually in comparison to untreated controls. The compositions according to the invention also have good post-emergence herbicidal activity against a broad spectrum of economically important gramineous and broadleaf weeds.

For assay [3], the system named is Abutilon theophrasti. Put plainly: Post-emergence herbicidal action against Abutilon theophrasti. An excerpt:
(§4) The following abbreviations are used in the description and the tables that follow: • g of a.i./ha=grams of active substance (active ingredient) (=100% active compound) per hectare; • The sum total of the effects of the individual applications is reported under E^A; • expected values according to Colby are each reported under E^C.
(§5) The rating period is reported in days after application (DAT).

Assay [4] relates to Kochia scoparia. The experiment in a line: Post-emergence herbicidal action against Kochia scoparia. Particulars: 21 DAT.
Assay [5] relates to Kochia scoparia. Described as above.
Text: as §4, §5

Assay [6] deals with Amaranthus palmeri. Put plainly: Post-emergence herbicidal action against Amaranthus palmeri. Conditions: for Herbicidal action / Herbicidal action against Amaranthus palmeri (res.): 21 DAT. The method in brief:
(§6)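 Visual scoring against untreated controls, made 3 to 4 weeks after treatment, gives the % efficacy. Plants grown in pots of sandy loam were sprayed on green parts at the three-leaf stage with formulated compositions at 300 to 800 l/ha water. Combination efficacy above the Colby expected value indicates synergism.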

Assay [7] deals with Echinochloa crus-galli. The experiment in a line: Post-emergence herbicidal action against Echinochloa crus-galli. Conditions: 21 DAT. On the procedure:
as §1, §2, §3

In assay [8] the test system is Setaria viridis. Put plainly: Post-emergence herbicidal action against Setaria viridis. Particulars: for Herbicidal action / Herbicidal action against Setaria viridis: 21 DAT. Here is the method:
as §1, §2, §3

The subject of assay [9] is Abutilon theophrasti. Put plainly: Post-emergence herbicidal action against Abutilon theophrasti. Conditions: 21 DAT.
Assay [10] relates to Pharbitis purpurea. Put plainly: Post-emergence herbicidal action against Pharbitis purpurea. Particulars: for Herbicidal action: 21 DAT. Here is the method: as §1, §2, §3
Assay [11] has as its system Sorghum halepense. Put plainly: Post-emergence herbicidal action against Sorghum halepense. Conditions: for Herbicidal action 21 DAT [%] against Sorghum halepense: post-emergence. Here is the method: as §1, §2, §3
The subject of assay [12] is Ipomoea hederacea. Put plainly: Post-emergence herbicidal action against Ipomoea hederacea. Here is the method: as §1, §2, §3
Assay [13] relates to Brachiaria platyphylla. Put plainly: Post-emergence herbicidal action against Brachiaria platyphylla. Particulars: for Herbicidal action 21 DAT [%] against Brachiaria platyphylla: post-emergence, block with (B1.14) Tembotrione. Here is the method: as §1, §2, §3
In assay [14] the test system is Digitaria sanguinalis. The experiment in a line: Post-emergence herbicidal action against Digitaria sanguinalis. Here is the method:
as §1, §2, §3

For assay [15], the system named is Polygonum convolvulus. Put plainly: Post-emergence herbicidal action against Polygonum convolvulus. Particulars: 21 DAT.
Assay [16] concerns Centaurea cyano. The experiment in a line: Post-emergence herbicidal action against Centaurea cyano. Conditions: 150 g a.i./ha. The method in brief: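 Greenhouse pot-grown plants sprayed post-emergence at the three-leaf stage, three weeks after sowing, with spray-powder or emulsion-concentrate formulations at various dosages in 300 to 800 l/ha water on green parts.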
The test system of assay [17] is Lolium rigidum. The experiment in a line: Post-emergence herbicidal action against Lolium rigidum. Particulars: 28 DAT; resistant biotype; 50 g a.i./ha.
The test system of assay [18] is Bromus sterilis. The experiment in a line: Post-emergence herbicidal action against Bromus sterilis. Particulars: 28 DAT; 150 g a.i./ha.
The test system of assay [19] is Poa annua. Put plainly: Post-emergence herbicidal action against Poa annua. Particulars: 28 DAT. Summed up: as §6

For the compound `C=CC1(C(=O)N[C@H]2CO[C@@H](C(=O)OC)C2)CC(c2cc(Cl)cc(Cl)c2)=NO1` (relative stereo) [Compound A2, methyl rel-(2R,4R)-4-[[3-(3,5-dichlorophenyl)-5-vinyl-4H-isoxazole-5-carbonyl]amino]tetrahydrofuran-2-carboxylate], the Herbicidal action is on record as 10% in [1] (1.7 g a.i./ha); 45% in [2] (5 g a.i./ha); 50% in assay [2] (15 g a.i./ha); 70% in assay [2] (45 g a.i./ha); 40% in assay [4] (5 g a.i./ha); 45% in [6] (5 g a.i./ha). Besides, the results for the Herbicidal action in assay [7] (15 g a.i./ha) and in assay [8] (1.7 g a.i./ha) were 80% and 10%, respectively. The “Herbicidal action 21 DAT against Abutilon theophrasti” value in [3] (g of a.i./ha: 90, 30, 15, 15 + 90, 15 + 30) amounted to 75%. The “Herbicidal action 21 DAT against Kochia scoparia” value in [5] (g of a.i./ha by row: 30, 5, 5 + 30) worked out at 40%.

For `CC(C)OC(=O)[C@H]1C[C@@H](NC(=O)C2(C)CC(c3cccc(F)c3)=NO2)CO1` (relative stereo) [Compound A4, isopropyl rel-(2R,4R)-4-[[3-(3-fluorophenyl)-5-methyl-4H-isoxazole-5-carbonyl]amino]tetrahydrofuran-2-carboxylate], the Herbicidal action in [1] (1.7 g a.i./ha) came to 20%; in [2] (5 g a.i./ha), 10%; in [2] (15 g a.i./ha) it was 10%; in [2] (45 g a.i./ha), 30%; in assay [4] (5 g a.i./ha), 10%; in assay [4] (15 g a.i./ha) it was 10%. In addition, the Herbicidal action was 10% in assay [6] ((res.), 5 g a.i./ha); 10% in assay [7] (5 g a.i./ha); 60% in [10] (15 g a.i./ha); 20% in assay [8] (5 g a.i./ha); 60% in [8] (15 g a.i./ha). The “Herbicidal action against Bidens pilosa” value in [2] (5 g of a.i./ha) and in assay [2] (15 g of a.i./ha) was 10% in each case. For the same compound, the “Herbicidal action against Abutilon theophrasti” value in assay [9] (5 g of a.i./ha) is 10%; in [9] (15 g of a.i./ha) it was 10%; in assay [9] (45 g of a.i./ha), 20%. Besides, the “Herbicidal action against Amaranthus palmeri (res.)” value in [6] (15 g of a.i./ha) is reported as 10%; in assay [6] (45 g of a.i./ha), 30%. For the same compound, the “Herbicidal action against Echinochloa crus-galli” value in assay [7] (15 g of a.i./ha) is 20%. The “Herbicidal action against Sorghum halepense” value in assay [11] (21 DAT, 15 g of a.i./ha) is on record as 10%. Further, the “Herbicidal action against Setaria viridis” value is listed as 10% in assay [8] (1.5 g of a.i./ha) and 60% in [8] (15 g of a.i./ha).

As to `CS(=O)(=O)c1ccc(C(=O)C2C(=O)CCCC2=O)c(Cl)c1COCC(F)(F)F` [(B1.14) Tembotrione, tembotrione, reference compound], the “Herbicidal action 37 DAT [%] against Ipomoea hederacea” value in assay [12] (37.5 g of a.i./ha, post-emergence) amounted to 0%. The “Herbicidal action 21 DAT [%] against Brachiaria platyphylla” value in assay [13] (15 g of a.i./ha) and in [13] (45 g of a.i./ha) was 50% each time. Also, the “Herbicidal action 21 DAT [%] against Bidens pilosa” value in assay [2] (5 g of a.i./ha) was determined as 10%; in assay [2] (15 g of a.i./ha), 25%; in assay [2] (45 g of a.i./ha), 25%. The pest or weed control at 5 g/ha in [6] (Amaranthus palmeri, post-emergence, 504 h, 5 g of a.i./ha, post-emergence, block with (B1.14) Tembotrione, read-out: Herbicidal action 21 DAT [%] against Amaranthus palmeri) is 10%. Also, in assay [6] (Amaranthus palmeri, post-emergence, 504 h, 15 g of a.i./ha, post-emergence, block with (B1.14) Tembotrione, read-out: Herbicidal action 21 DAT [%] against Amaranthus palmeri), the pest or weed control at 15 g/ha amounted to 20%. In addition, the figures for the “Herbicidal action 21 DAT [%] against Sorghum halepense” value in [11] (5 g of a.i./ha) and in assay [11] (15 g of a.i./ha) were 30% and 50%, respectively. Further, the “Herbicidal action 21 DAT [%] against Setaria viridis” value in assay [8] (5 g of a.i./ha, post-emergence) is listed as 10%.

For the compound `CCS(=O)(=O)c1cccnc1S(=O)(=O)NC(=O)Nc1nc(OC)cc(OC)n1` [(B2.63) Rimsulfuron], the “Herbicidal action 37 DAT against Ipomoea hederacea” value in assay [12] (35 g of a.i./ha) was determined as 0%.

On to `CCc1cccc(C)c1N(C(=O)CCl)[C@@H](C)COC` [(B2.64) S-Metolachlor], for which the figures for the “Herbicidal action 21 DAT against Brachiaria platyphylla” value in assay [13] (150 g of a.i./ha) and in assay [13] (450 g of a.i./ha) were 10% and 25%, respectively. Also, the “Herbicidal action 21 DAT against Bidens pilosa” value in assay [2] (150 g of a.i./ha) came out at 10%; in [2] (450 g of a.i./ha) it was 20%. The “Herbicidal action 21 DAT against Abutilon theophrasti” value in [3] (150 g of a.i./ha) came to 0%; in assay [3] (450 g of a.i./ha), 10%. In addition, the “Herbicidal action 21 DAT against Digitaria sanguinalis” value in [14] (50 g of a.i./ha) worked out at 10%; in assay [14] (150 g of a.i./ha), 40%. Besides, the “Herbicidal action 21 DAT against Kochia scoparia” value in assay [5] (150 g of a.i./ha) came to 0%; in [5] (450 g of a.i./ha), 10%. Moreover, the “Herbicidal action 21 DAT against Pharbitis purpurea” value in assay [10] (150 g of a.i./ha) was 0%; in assay [10] (450 g of a.i./ha), 10%. For the same compound, in assay [11] (450 g of a.i./ha), the “Herbicidal action 21 DAT against Sorghum halepense” value is on record as 40%. Also, the “Herbicidal action 21 DAT against Setaria viridis” value in assay [8] (50 g of a.i./ha) is recorded as 30%.

Take `CP(=O)(O)CCC(N)C(=O)O` (stereo not drawn) [(B7.4) Glufosinate]: the Herbicidal action in [1] (50 g a.i./ha) is 15%; in [1] (150 g a.i./ha), 35% and 40%; in assay [1] (450 g a.i./ha) it was 60%; in assay [13] (21 DAT, 150 g a.i./ha) it was 70%; in [2] (50 g a.i./ha), 30%; in [2] (150 g a.i./ha), 75%. Besides, the Herbicidal action is 75% and 90% in assay [2] (450 g a.i./ha); 20% in assay [4] (50 g a.i./ha); 80% in assay [4] (450 g a.i./ha); 85% in [14] (21 DAT, 450 g a.i./ha); 10% in [15] (50 g a.i./ha); 20% in assay [15] (150 g a.i./ha). Moreover, the Herbicidal action in assay [16] (14 DAT) is reported as 60%; in [16] (28 DAT), 30%; in assay [6] (50 g a.i./ha), 50%; in assay [6] ((res.), 50 g a.i./ha), 35%; in assay [6] ((res.), 150 g a.i./ha), 70%; in assay [7] (150 g a.i./ha), 65%. For the same compound, the Herbicidal action was determined as 10% in assay [17]; 20% in assay [10] (50 g a.i./ha); 20% in [11] (21 DAT, 50 g a.i./ha); 5% in assay [11] (21 DAT, 450 g a.i./ha); 10% in assay [18]; 20% in [19] (50 g a.i./ha). The Herbicidal action in assay [19] (150 g a.i./ha) is 30%; in [8] (50 g a.i./ha), 40% and 20%.
